Measurements as given in ChEMBL document CHEMBL3286361, “Design and discovery of flavonoid-based HIV-1 integrase inhibitors targeting both the active site and the interaction with LEDGF/p75” (Bioorg Med Chem, 2014).
≈ marks a conversion by molar mass, not a printed value.

Assays:
[1] = target: T1, Human immunodeficiency virus type 1 integrase (Human immunodeficiency virus 1, UniProt Q7ZJM1); assay: Inhibition of recombinant HIV-1 integrase 3'-processing activity using 32P 5' end-labeled linear 21'mer as substrate preincubated for 30 mins prior to substrate challenge by phosphorimaging analysis
T1 sequence (Q7ZJM1 whole entry): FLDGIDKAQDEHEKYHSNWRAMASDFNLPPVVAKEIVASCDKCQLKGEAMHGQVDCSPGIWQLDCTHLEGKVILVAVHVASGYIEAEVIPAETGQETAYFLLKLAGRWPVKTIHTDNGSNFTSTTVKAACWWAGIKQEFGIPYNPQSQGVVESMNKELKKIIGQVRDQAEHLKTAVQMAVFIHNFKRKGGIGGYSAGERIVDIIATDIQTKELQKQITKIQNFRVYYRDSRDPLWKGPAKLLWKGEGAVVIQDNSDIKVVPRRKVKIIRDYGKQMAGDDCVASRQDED

[2] = target: T1, Human immunodeficiency virus type 1 integrase; assay: Inhibition of recombinant HIV-1 integrase strand transfer activity using 32P 5' end-labeled linear 21'mer as substrate preincubated for 30 mins prior to substrate challenge by phosphorimaging analysis
[3] = test system: Human immunodeficiency virus 1; assay: Antiviral activity against HIV-1 3B infected in human C8166 cells assessed as inhibition of virus-induced cytopathogenicity by measuring syncytial cell number after 3 days by inverted microscopic analysis; type: functional, organism-based; details: Human immunodeficiency virus 1, 3B, C8166, 72 h
[4] = Cytotoxicity against human C8166 cells assessed as inhibition of cell proliferation after 72 hrs by MTT assay; type: cell-based
[5] = Therapeutic index, ratio of CC50 for human C8166 cells to EC50 for HIV-1 3B infected in human C8166 cells; type: cell-based; details: HIV-1 3B infected C8166 cells, read-out: Ratio CC50/EC50
[6] = target: T1, Human immunodeficiency virus type 1 integrase; assay: Inhibition of His6-tagged HIV-1 integrase assessed as decrease in integrase-Flag-LEDGF/p75 interaction preincubated with enzyme for 30 mins followed by addition of Flag-LEDGF/p75 for 1 hr by AlphaScreen assay

Structure (SMILES)	IC50 [1] [µM]	IC50 [2] [µM]	EC50 [3] [µg/mL]	CC50 at 72 h [4] [µg/mL]	selectivity ratio [5]	IC50 [6] [nM]
O=c1c(OCc2ccc(F)cc2)c(-c2ccc(O)c(O)c2)oc2cc(O)cc(O)c12	> 20	> 20	1.95 (≈ 4.75 µM)	22.5 (≈ 54.8 µM)	12	380
O=c1c(O)c(-c2ccc(O)c(O)c2)oc2cc(OCc3ccc(F)cc3)cc(O)c12	20	4	> 5.68	5.68 (≈ 13.8 µM)		940
O=c1c(O)c(-c2ccc(O)c(O)c2)oc2cc(N3CCOCC3)cc(O)c12	> 20	> 20	5.05 (≈ 13.6 µM)	24.7 (≈ 66.5 µM)	5	970
O=c1cc(-c2ccccc2)oc2cc(OCc3ccc(F)cc3)c(O)c(O)c12	> 20	7	3.04 (≈ 8.03 µM)	5.8 (≈ 15.3 µM)	2	> 20000
CC(C)(C)Oc1cc2oc(-c3ccccc3)cc(=O)c2c(O)c1O	> 100	> 100	8.45 (≈ 25.9 µM)	40.5 (≈ 124 µM)	5	> 20000
O=c1cc(-c2ccc(O)c(O)c2)oc2cc(OCc3ccc(F)cc3)cc(O)c12	> 20	> 20	7.37 (≈ 18.7 µM)	16.2 (≈ 41.1 µM)	2	
O=c1cc(-c2ccc(O)c(O)c2)oc2cc(N3CCOCC3)cc(O)c12	> 20	> 20	2.21 (≈ 6.22 µM)	63.6 (≈ 179 µM)	29	1600
O=c1cc(-c2ccc(O)cc2)oc2cc(OCc3ccc(F)cc3)cc(O)c12	80	35	10.7 (≈ 28.3 µM)	16.8 (≈ 44.4 µM)	1.6	> 20000
CC(C)(C)Oc1cc(O)c2c(=O)cc(-c3ccc(O)cc3)oc2c1	> 20	> 20	3.2 (≈ 9.81 µM)	25 (≈ 76.6 µM)	8	> 20000
O=c1cc(-c2ccc(O)cc2)oc2cc(N3CCOCC3)cc(O)c12	> 20	> 20	68.4 (≈ 202 µM)	105 (≈ 311 µM)	1.5	1700
O=c1cc(-c2ccccc2)oc2cc(OCc3ccc(F)cc3)cc(O)c12	> 20	> 20	> 8.35	8.35 (≈ 23 µM)		> 20000
CC(C)(C)Oc1cc(O)c2c(=O)cc(-c3ccccc3)oc2c1	> 100	50	12.1 (≈ 39 µM)	61.2 (≈ 197 µM)	5	> 20000
O=c1cc(-c2ccccc2)oc2cc(N3CCOCC3)cc(O)c12	> 20	> 20	> 200	> 200		> 20000
O=C1C[C@@H](c2ccc(O)cc2)Oc2cc(OCc3ccc(F)cc3)cc(O)c21	> 100	> 100	2.06 (≈ 5.42 µM)	11.5 (≈ 30.2 µM)	6	
CC(C)(C)Oc1cc(O)c2c(c1)O[C@H](c1ccc(O)cc1)CC2=O	> 100	> 100	3.05 (≈ 9.29 µM)	25.4 (≈ 77.4 µM)	8	> 20000
O=c1c(-c2ccc(O)cc2)coc2cc(OCc3ccc(F)cc3)cc(O)c12	> 100	80	11 (≈ 29.1 µM)	> 200	> 18	> 20000
CC(C)(C)Oc1cc(O)c2c(=O)c(-c3ccc(O)cc3)coc2c1	> 100	70	> 47.7	47.7 (≈ 146 µM)		> 20000
O=c1c(-c2ccc(O)cc2)coc2cc(N3CCOCC3)cc(O)c12	> 20	> 20	0.826 (≈ 2.43 µM)	> 200	> 242	1700
O=c1c(O)c(-c2ccc3c(c2)OC(c2ccccc2)(c2ccccc2)O3)oc2cc(O)cc(O)c12	> 20	> 20				> 20000
O=c1c(O)c(-c2ccc(O)c(O)c2)oc2cc(O)cc(OCc3ccc(F)cc3)c12	> 20	7.6	4.54 (≈ 11.1 µM)	24 (≈ 58.5 µM)	5	1800
O=c1c(O)c(-c2ccc(O)c(OCc3ccc(F)cc3)c2)oc2cc(O)cc(O)c12	> 20	> 20	0.47 (≈ 1.15 µM)	23.8 (≈ 58 µM)	51	1800
O=c1c(O)c(-c2ccc(OCc3ccc(F)cc3)c(O)c2)oc2cc(O)cc(O)c12	> 20	> 20	4.1 (≈ 9.99 µM)	23.4 (≈ 57 µM)	6	1400
O=c1cc(-c2ccc(O)cc2)oc2cc(O)cc(O)c12 [APIGENIN]	> 20	> 20	4.46 (≈ 16.5 µM)	17.2 (≈ 63.6 µM)	4	1500
O=c1cc(-c2ccccc2)oc2cc(O)c(O)c(O)c12 [BAICALEIN]			1.67 (≈ 6.18 µM)	30.3 (≈ 112 µM)		
O=c1cc(-c2ccccc2)oc2cc(O)cc(O)c12 [CHRYSIN]	> 20	> 20	13.4 (≈ 52.7 µM)	110 (≈ 433 µM)	8	1400
O=c1c(-c2ccc(O)cc2)coc2cc(O)cc(O)c12 [GENISTEIN]	> 20	> 20	13.9 (≈ 51.4 µM)	36.2 (≈ 134 µM)	3	1100
O=c1cc(-c2ccc(O)c(O)c2)oc2cc(O)cc(O)c12 [LUTEOLIN]	> 20	8.9	2.48 (≈ 8.66 µM)	17.9 (≈ 62.5 µM)	7	450
O=C1C[C@@H](c2ccc(O)cc2)Oc2cc(O)cc(O)c21 [NARINGENIN]	> 20	> 20	9.47 (≈ 34.8 µM)	142 (≈ 520 µM)	15	1700
O=c1c(O)c(-c2ccc(O)c(O)c2)oc2cc(O)cc(O)c12 [QUERCETIN]	> 20	8	2.05 (≈ 6.78 µM)	105 (≈ 347 µM)	44	600
